We go through 44 compounds from US20160039825A1 (BIOGEN MA INC., priority 2013, published 2016).

A word on the IC50: it is the concentration that gives 50% inhibition. By inhibition is commonly meant the relative decrease from the control value, in per cent. Read a high inhibition as a strong effect.

The test deals with T1, Human ATX protein (Homo sapiens, UniProt Q13822).
T1 construct: made in house
Briefly: Autotaxin (ATX) assay, FRET with FS-3 substrate. Particulars: for IC50: upper bound bins (no greater than 100, 250 or 500 nM), FS-3 2 μM, ATX 1.0 μg/mL; for inhibition at 10 µM: 10 uM compound. The format is biochemical. In short, it runs like this: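 Hydrolysis of the FRET substrate FS-3 (2 μM final) unquenches fluorescein, read at excitation 485 nm and emission 538 nm after 2 h at room temperature, protected from light. Purified human ATX (1.0 μg/mL) and compound were first incubated for 30 min in pH 7.4 Tris/salt buffer containing 1 mg/mL fatty acid-free BSA.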

For `N#Cc1cc2n(n1)CCCN(C(=O)OCc1cc(Cl)cc(Cl)c1)C2` [Example 122, 3,5-Dichlorobenzyl 2-cyano-7,8-dihydro-4H-pyrazolo[1,5-a][1,4]diazepine-5(6H)-carboxylate], the IC50 is ≤ 250 nM.

On to `CNCc1cc2n(n1)CCCN(C(=O)OCc1cc(C(F)(F)F)cc(C(F)(F)F)c1)C2` [Example 294], for which the IC50 is ≤ 500 nM.

Take `CC(C)(C)OC(=O)N1CCC(c2cc3n(n2)CCN(C(=O)OCc2cc(C(F)(F)F)cc(C(F)(F)F)c2)C3)CC1` [Example 398, 3,5-bis(trifluoromethyl)benzyl 2-(1-(tert-butoxycarbonyl)piperidin-4-yl)-6,7-dihydropyrazolo[1,5-a]pyrazine-5(4H)-carboxylate]: the IC50 was ≤ 100 nM.

For `O=C(O)C1CC2CCC(C1)N2Cc1cc2n(n1)CCCN(C(=O)OCc1cc(C(F)(F)F)cc(C(F)(F)F)c1)C2` (centres unmarked) [Example 296], the 50% inhibitory concentration (IC50) was ≤ 250 nM.

As to `O=C(OCc1cc(Cl)cc(C(F)(F)F)c1)N1CCCn2nc(C(=O)N3CCNCC34CCC4)cc2C1` [Example 175], the 50% inhibitory concentration (IC50) is ≤ 100 nM.

For the compound `NC(=O)c1cc2n(n1)CCN(C(=O)OCc1cc(C(F)(F)F)cc(C(F)(F)F)c1)C2` [Example 491], the IC50 was ≤ 100 nM.

With `O=C(OCc1cc(C(F)(F)F)cc(C(F)(F)F)c1)N1CCn2nc(Br)cc2C1` [Example 407], the inhibition at 10 µM came out at 50%.

Regarding `CN1CCN(C(=O)c2cc3n(n2)CCCN(C(=O)OCc2cc(Cl)cc(C(F)(F)F)c2)C3)C2(CCC2)C1` [Example 174], the IC50 was ≤ 100 nM.

As to `O=C(O)c1cc2n(c1)CCCN(C(=O)OCc1cc(Cl)cc(Cl)c1)C2` [Example 100, 2-(((3,5-Dichlorobenzyl)oxy)carbonyl)-2,3,4,5-tetrahydro-1H-pyrrolo[1,2-a][1,4]diazepine-8-carboxylic acid], the IC50 is ≤ 100 nM.

As to `O=C(O)C1CC2CCCC(C1)N2C(=O)c1cc2n(n1)CCCN(C(=O)OCc1ccc(Cl)cc1)C2` (centres unmarked) [Example 59, 9-(5-((4-Chlorobenzyloxy)carbonyl)-5,6,7,8-tetrahydro-4H-pyrazolo[1,5-a][1,4]diazepine-2-carbonyl)-9-aza-bicyclo[3.3.1]nonane-3-carboxylic acid], the IC50 is ≤ 100 nM.

Turning to `O=C(O)c1nn2c(c1Cl)CN(C(=O)OCc1cc(C(F)(F)F)cc(C(F)(F)F)c1)CC2` [Example 113, 5-(((3,5-Bis(trifluoromethyl)benzyl)oxy)carbonyl)-3-chloro-4,5,6,7-tetrahydropyrazolo[1,5-a]pyrazine-2-carboxylic acid], the IC50 was ≤ 250 nM.

With `O=C(OCc1cc(Cl)cc(Cl)c1)N1CCCn2nc(C(=O)N3CCC(O)CC3)cc2C1` [Example 101, 3,5-Dichlorobenzyl 2-(4-hydroxypiperidine-1-carbonyl)-7,8-dihydro-4H-pyrazolo[1,5-a][1,4]diazepine-5(6H)-carboxylate], the IC50 is ≤ 100 nM.

On to `CCCN1CCN(c2cc3n(n2)CCCN(C(=O)OCc2cc(C(F)(F)F)cc(C(F)(F)F)c2)C3)CC1` [Example 357], for which the half-inhibitory concentration (IC50) is ≤ 100 nM.

Consider `O=C(OCc1cc(C(F)(F)F)cc(C(F)(F)F)c1)N1CCCn2nc(C(=O)N3CC4CCC3CN4)cc2C1` (centres unmarked) [Example 224], for which the 50% inhibitory concentration (IC50) is ≤ 100 nM.

Turning to `CC1CN(c2cc3n(n2)CCCN(C(=O)OCc2cc(C(F)(F)F)cc(C(F)(F)F)c2)C3)CC(C)N1` (centres unmarked) [Example 345], the IC50 was ≤ 100 nM.

For the compound `O=C(OCc1cc(C(F)(F)F)cc(C(F)(F)F)c1)N1CCn2nc(-c3ccncc3)cc2C1` [Example 499], the concentration for half-maximal inhibition (IC50) is ≤ 100 nM.

`O=C(OCc1cc(Cl)cc(C(F)(F)F)c1)N1CCn2c(nnc2C(F)(F)F)C1` [Example 135, 3-Chloro-5-(trifluoromethyl)benzyl 3-(trifluoromethyl)-5,6-dihydro-[1,2,4]triazolo[4,3-a]pyrazine-7(8H)-carboxylate]: the IC50 is ≤ 500 nM.

In the case of `O=C(OCc1cc(Cl)cc(C(F)(F)F)c1)N1CCCn2nc(C(=O)N3CCNCC34CC4)cc2C1` [Example 210], the IC50 is ≤ 100 nM.

`O=C(O)C1CC2CCC(C1)N2C(=O)c1cc2n(n1)CCN(C(=O)CCc1cc(Cl)cc(Cl)c1)C2` (centres unmarked) [Example 93, 8-(5-(3-(3,5-Dichlorophenyl)propanoyl)-4,5,6,7-tetrahydropyrazolo[1,5-a]pyrazine-2-carbonyl)-8-azabicyclo[3.2.1]octane-3-carboxylic acid]: the half-maximal inhibitory concentration (IC50) is ≤ 500 nM.

As to `Cc1cc2n(n1)CCCN(C(=O)OCc1cc(Cl)cc(Cl)c1)C2` [Example 130, 3,5-Dichlorobenzyl 2-methyl-7,8-dihydro-4H-pyrazolo[1,5-a][1,4]diazepine-5(6H)-carboxylate], the half-maximal inhibitory concentration (IC50) is ≤ 500 nM.

With `CN1C2CCC1CN(C(=O)c1cc3n(c1)CCCN(C(=O)OCc1cc(Cl)cc(C(F)(F)F)c1)C3)C2` [Example 278, 3-chloro-5-(trifluoromethyl)benzyl 8-(8-methyl-3,8-diazabicyclo[3.2.1]octane-3-carbonyl)-4,5-dihydro-1H-pyrrolo[1,2-a][1,4]diazepine-2(3H)-carboxylate], the concentration for half-maximal inhibition (IC50) is ≤ 100 nM.

Turning to `CC1CC(Nc2cc3n(n2)CCCN(C(=O)OCc2cc(C(F)(F)F)cc(C(F)(F)F)c2)C3)CCN1` (centres unmarked) [Example 315], the half-inhibitory concentration (IC50) is ≤ 100 nM.

For the compound `CNC1CN(C(=O)c2cc3n(n2)CCCN(C(=O)OCc2cc(C(F)(F)F)cc(C(F)(F)F)c2)C3)C1` [Example 242], the IC50 was ≤ 100 nM.

`O=C(O)c1cc2n(n1)CCCN(C(=O)CNc1cc(C(F)(F)F)cc(C(F)(F)F)c1)C2` [Example 116, 5-(2-((3,5-Bis(trifluoromethyl)phenyl)amino)acetyl)-5,6,7,8-tetrahydro-4H-pyrazolo[1,5-a][1,4]diazepine-2-carboxylic acid]: the IC50 is ≤ 500 nM.

For `O=C(OCc1cc(C(F)(F)F)cc(C(F)(F)F)c1)N1CCCn2nc(CN[C@H]3CC[C@@H](C(=O)O)CC3)cc2C1` [Example 288], the IC50 was ≤ 500 nM.

As for `CCN1CCN(C(=O)c2cc3n(n2)CCCN(C(=O)OCc2cc(Cl)cc(C(F)(F)F)c2)C3)C(C)(C)C1` [Example 172], the 50% inhibitory concentration (IC50) was ≤ 100 nM.

In the case of `O=C(O)Cc1cc2n(n1)CCCN(C(=O)OCc1cc(C(F)(F)F)cc(C(F)(F)F)c1)C2` [Example 386, 2-(5-(((3,5-bis(Trifluoromethyl)benzyl)oxy)carbonyl)-5,6,7,8-tetrahydro-4H-pyrazolo[1,5-a][1,4]diazepin-2-yl)acetic acid], the concentration for half-maximal inhibition (IC50) is ≤ 100 nM.

As for `C[C@H]1CCCN1CC(=O)c1cc2n(n1)CCCN(C(=O)OCc1cc(Cl)cc(C(F)(F)F)c1)C2` [Example 262], the IC50 is ≤ 100 nM.

For `O=C(OCc1cc(Cl)cc(C(F)(F)F)c1)N1CCCn2nc(C3CN4CCCC[C@H]4CO3)cc2C1` (mixture of isomers) [Example 253, 3-chloro-5-(trifluoromethyl)benzyl 2-((9aS)-octahydropyrido[2,1-c][1,4]oxazin-3-yl)-7,8-dihydro-4H-pyrazolo[1,5-a][1,4]diazepine-5(6H)-carboxylate], the IC50 is ≤ 100 nM.

Take `O=C(CN1CCOCC1)c1cc2n(n1)CCN(C(=O)OCc1cc(C(F)(F)F)cc(C(F)(F)F)c1)C2` [Example 259]: the IC50 is ≤ 100 nM.

With `O=C(O)c1cc2n(n1)CCN(C(=O)OCc1cc(C(F)(F)F)cc(C(F)(F)F)c1)C2` [Example 419], the half-inhibitory concentration (IC50) was ≤ 250 nM.

With `O=C(OCc1cc(Cl)cc(C(F)(F)F)c1)N1CCCn2nc(C(=O)N3C4CCC3CNC4)cc2C1` [Example 203], the IC50 is ≤ 100 nM.

Regarding `CC(C)(C)OC(=O)N1C2CCC1CN(C(=O)c1cc3n(n1)CCN(C(=O)OCc1cc(C(F)(F)F)cc(C(F)(F)F)c1)C3)C2` [Example 470], the concentration for half-maximal inhibition (IC50) is ≤ 100 nM.

`O=C(OCc1cc(C(F)(F)F)cc(C(F)(F)F)c1)N1CCCn2nc(C(=O)N3CCNCC34CCCC4)cc2C1` [Example 240]: the 50% inhibitory concentration (IC50) was ≤ 100 nM.

Turning to `O=C(O)c1cc2n(n1)CC(O)CN(C(=O)OCc1cc(C(F)(F)F)cc(C(F)(F)F)c1)C2` (centres unmarked) [Example 421], the half-maximal inhibitory concentration (IC50) was ≤ 500 nM.

For the compound `CN1CCN(C(=O)c2cc3n(n2)CCCN(C(=O)OCc2cc(Cl)cc(C(F)(F)F)c2)C3)CC1C(F)(F)F` (centres unmarked) [Example 186], the IC50 was ≤ 100 nM.

For the compound `CON(C)C(=O)c1cc2n(n1)CCN(C(=O)OCc1cc(C(F)(F)F)cc(C(F)(F)F)c1)C2` [Example 400, 3,5-bis(trifluoromethyl)benzyl 2-(methoxy(methyl)carbamoyl)-6,7-dihydropyrazolo[1,5-a]pyrazine-5(4H)-carboxylate], the 50% inhibitory concentration (IC50) is ≤ 100 nM.

For `O=C(OCc1cc(C(F)(F)F)cc(C(F)(F)F)c1)N1CCCn2nc(N3CCC4NCCC43)cc2C1` (centres unmarked) [Example 359], the half-inhibitory concentration (IC50) was ≤ 100 nM.

As to `CC(C)C(Nc1cc2n(n1)CCCN(C(=O)OCc1cc(C(F)(F)F)cc(C(F)(F)F)c1)C2)C(=O)O` (centres unmarked) [Example 363], the IC50 was ≤ 100 nM.

In the case of `CN1CCC(c2cc3n(n2)CCCN(C(=O)OCc2cc(C(F)(F)F)cc(C(F)(F)F)c2)C3)C1` (centres unmarked) [Example 385], the 50% inhibitory concentration (IC50) was ≤ 250 nM.

Turning to `Nc1cc2n(n1)CCCN(C(=O)OCc1cc(C(F)(F)F)cc(C(F)(F)F)c1)C2` [Example 279, 3,5-Bis(trifluoromethyl)benzyl 2-amino-7,8-dihydro-4H-pyrazolo[1,5-a][1,4]diazepine-5(6H)-carboxylate], 10 µM produced 60% inhibition.

For `CCOC(=O)c1cc2n(n1)CCN(C(=O)OCc1cc(Cl)cc(C(F)(F)F)c1)C2` [Example 402, 5-(3-chloro-5-(trifluoromethyl)benzyl) 2-ethyl 6,7-dihydropyrazolo[1,5-a]pyrazine-2,5(4H)-dicarboxylate], the IC50 was ≤ 100 nM.

On to `O=C(NC1CC(O)C1)c1cc2n(n1)CCCN(C(=O)OCc1cc(C(F)(F)F)cc(C(F)(F)F)c1)C2` (centres unmarked) [Example 504], for which the half-maximal inhibitory concentration (IC50) is ≤ 100 nM.

`CCOC(=O)c1nn2c(c1Cl)CN(C(=O)OCc1cc(C(F)(F)F)cc(C(F)(F)F)c1)CC2` [Example 112, 5-(3,5-Bis(trifluoromethyl)benzyl) 2-ethyl 3-chloro-6,7-dihydropyrazolo[1,5-a]pyrazine-2,5(4H)-dicarboxylate]: the IC50 was ≤ 250 nM.
